Measurements reported in patent US10159640B2, “Prebiotic oral care compositions containing amino acids” (COLGATE-PALMOLIVE COMPANY, priority 2013, dated 2018).

Legend:
Experiment in all cases: Extent of growth, growth curves in BHI
Assay type in all cases: cell-based
Details in all cases: control = 1
Fusobacterium nucleatum = system: Fusobacterium nucleatum
Protocol: (§1) The extent of growth of the tested bacteria in response to selected compounds (Met-Pro, Phe-Glu) was investigated by setting up growth curves in a nutritionally rich medium (brain heart infusion broth (BHI), Oxoid), over 48 hours. Late exponential growth phase liquid cultures were prepared by transferring the respective bacterium from blood agar plates to BHI and overnight incubation at 37° C. in an anaerobic atmosphere for A. viscosus, V. parvula, F. nucleatum, P. gingivalis, P. intermedia, T. forsythia, A. naeslundii, and C. sputigena, and in a 5% CO2 environment for S. salivarius, S. sanguinis, S. mitis, A. actinomycetemcomitans, S. mutans, S. sobrinus and S. gordonii. Overnight cultures were transferred to BHI and adjusted to a concentration of 1×10^7 CFU/ml (colony forming units per ml) by measuring the optical density at 600 nm (OD600) (BioRad SmartSpec 3000). For each strain, 200 μl of the bacterial suspension was added to a 96-well plate containing 20 μl of the respective di-peptides. Final concentrations of the di-peptides were set to 5, 10, 20 and 25 μmol/ml. […] Plates were incubated as previously described.
(§2) For each combination of bacterium/dipeptide, and for each of their respective controls (i.e. the particular bacterium in the nutritionally rich medium with no dipeptide), the optical density was measured at 630 nm (OD630) at 0 h, 24 h and 48 h (Thermo Scientific Multiskan Ascent). Additionally, the OD630 for combinations of bacterium/dipeptide grown in a 5% CO2 environment were also measured every hour between 0 h and 9 h.
(§3) The experiment was carried out on three different days (thus providing 3 biological replicas) and on each day the experiment was carried out in quadruple (thus providing 4 technical replicas) for each combination of bacterium with dipeptide and for each control. For each day and for each combination, the average (mean) of the values obtained (as detailed above) for the four technical replicas was calculated to provide a single value for each combination on each day. The values shown in Tables 5 to 6, below, are the average (mean) of the three single values obtained for each combination of bacterium with dipeptide.

[1] = system: Aggregatibacter actinomycetemcomitans
Protocol: as §1, §2, §3

Streptococcus gordonii = system: Streptococcus gordonii
Protocol: as §1, §2, §3

Tannerella forsythia = system: Tannerella forsythia
Protocol: as §1, §2, §3

Actinomyces naeslundii = system: Actinomyces naeslundii
Protocol: as §1, §2, §3

Streptococcus salivarius = system: Streptococcus salivarius
Protocol: as §1, §2, §3

Actinomyces viscosus = system: Actinomyces viscosus
Protocol: as §1, §2, §3

Streptococcus mitis = system: Streptococcus mitis
Protocol: as §1, §2, §3

Prevotella intermedia = system: Prevotella intermedia
Protocol: as §1, §2, §3

Streptococcus sobrinus = system: Streptococcus sobrinus
Protocol: as §1, §2, §3

Capnocytophaga sputigena = system: Capnocytophaga sputigena
Protocol: as §1, §2, §3

Streptococcus sanguinis = system: Streptococcus sanguinis
Protocol: as §1, §2, §3

Porphyromonas gingivalis = system: Porphyromonas gingivalis
Protocol: as §1, §2, §3

Veillonella parvula = system: Veillonella parvula
Protocol: as §1, §2, §3

Streptococcus mutans = system: Streptococcus mutans
Protocol: as §1, §2, §3

Met-Pro
extent of growth: maximal OD630 over 48 hr divided by maximal OD of control (Fusobacterium nucleatum; 5 μmol/ml): 0.8422 | extent of growth: maximal OD630 over 48 hr divided by maximal OD of control (Fusobacterium nucleatum; 10 μmol/ml): 0.8667 | extent of growth: maximal OD630 over 48 hr divided by maximal OD of control (Fusobacterium nucleatum; 20 μmol/ml): 0.7782 | extent of growth: maximal OD630 over 48 hr divided by maximal OD of control (Fusobacterium nucleatum; 25 μmol/ml): 0.7273 | extent of growth: maximal OD630 over 48 hr divided by maximal OD of control ([1]; 5 μmol/ml): 0.7454 | extent of growth: maximal OD630 over 48 hr divided by maximal OD of control ([1]; 10 μmol/ml): 0.6321 | extent of growth: maximal OD630 over 48 hr divided by maximal OD of control ([1]; 20 μmol/ml): 0.3282 | extent of growth: maximal OD630 over 48 hr divided by maximal OD of control ([1]; 25 μmol/ml): 0.2297 | extent of growth: maximal OD630 over 48 hr divided by maximal OD of control (Streptococcus gordonii; 5 μmol/ml): 0.9757 | extent of growth: maximal OD630 over 48 hr divided by maximal OD of control (Streptococcus gordonii; 10 μmol/ml): 0.9528 | extent of growth: maximal OD630 over 48 hr divided by maximal OD of control (Streptococcus gordonii; 20 μmol/ml): 0.7735 | extent of growth: maximal OD630 over 48 hr divided by maximal OD of control (Streptococcus gordonii; 25 μmol/ml): 0.6853 | extent of growth: maximal OD630 over 48 hr divided by maximal OD of control (Tannerella forsythia; 5 μmol/ml): 0.9244 | extent of growth: maximal OD630 over 48 hr divided by maximal OD of control (Tannerella forsythia; 10 μmol/ml): 0.9743 | extent of growth: maximal OD630 over 48 hr divided by maximal OD of control (Tannerella forsythia; 20 μmol/ml): 0.7533 | extent of growth: maximal OD630 over 48 hr divided by maximal OD of control (Tannerella forsythia; 25 μmol/ml): 0.7018 | extent of growth: maximal OD630 over 48 hr divided by maximal OD of control (Actinomyces naeslundii; 5 μmol/ml): 0.8420 | extent of growth: maximal OD630 over 48 hr divided by maximal OD of control (Actinomyces naeslundii; 10 μmol/ml): 0.8131 | extent of growth: maximal OD630 over 48 hr divided by maximal OD of control (Actinomyces naeslundii; 20 μmol/ml): 0.5466 | extent of growth: maximal OD630 over 48 hr divided by maximal OD of control (Actinomyces naeslundii; 25 μmol/ml): 0.3360 | extent of growth: maximal OD630 over 48 hr divided by maximal OD of control (Streptococcus salivarius; 5 μmol/ml): 0.9729 | extent of growth: maximal OD630 over 48 hr divided by maximal OD of control (Streptococcus salivarius; 10 μmol/ml): 1.0153 | extent of growth: maximal OD630 over 48 hr divided by maximal OD of control (Streptococcus salivarius; 20 μmol/ml): 0.7572 | extent of growth: maximal OD630 over 48 hr divided by maximal OD of control (Streptococcus salivarius; 25 μmol/ml): 0.5262 | extent of growth: maximal OD630 over 48 hr divided by maximal OD of control (Actinomyces viscosus; 5 μmol/ml): 0.4873 | extent of growth: maximal OD630 over 48 hr divided by maximal OD of control (Actinomyces viscosus; 10 μmol/ml): 0.4102 | extent of growth: maximal OD630 over 48 hr divided by maximal OD of control (Actinomyces viscosus; 20 μmol/ml): 0.3154 | extent of growth: maximal OD630 over 48 hr divided by maximal OD of control (Actinomyces viscosus; 25 μmol/ml): 0.2498 | extent of growth: maximal OD630 over 48 hr divided by maximal OD of control (Streptococcus mitis; 5 μmol/ml): 0.9134 | extent of growth: maximal OD630 over 48 hr divided by maximal OD of control (Streptococcus mitis; 10 μmol/ml): 1.2332 | extent of growth: maximal OD630 over 48 hr divided by maximal OD of control (Streptococcus mitis; 20 μmol/ml): 1.8922 | extent of growth: maximal OD630 over 48 hr divided by maximal OD of control (Streptococcus mitis; 25 μmol/ml): 1.7501 | extent of growth: maximal OD630 over 48 hr divided by maximal OD of control (Prevotella intermedia; 5 μmol/ml): 0.9177 | extent of growth: maximal OD630 over 48 hr divided by maximal OD of control (Prevotella intermedia; 10 μmol/ml): 0.9742 | extent of growth: maximal OD630 over 48 hr divided by maximal OD of control (Prevotella intermedia; 20 μmol/ml): 0.3193 | extent of growth: maximal OD630 over 48 hr divided by maximal OD of control (Prevotella intermedia; 25 μmol/ml): 0.2336 | extent of growth: maximal OD630 over 48 hr divided by maximal OD of control (Streptococcus sobrinus; 5 μmol/ml): 0.9294 | extent of growth: maximal OD630 over 48 hr divided by maximal OD of control (Streptococcus sobrinus; 10 μmol/ml): 1.0301 | extent of growth: maximal OD630 over 48 hr divided by maximal OD of control (Streptococcus sobrinus; 20 μmol/ml): 1.0167 | extent of growth: maximal OD630 over 48 hr divided by maximal OD of control (Streptococcus sobrinus; 25 μmol/ml): 0.8547 | extent of growth: maximal OD630 over 48 hr divided by maximal OD of control (Capnocytophaga sputigena; 5 μmol/ml): 0.9618 | extent of growth: maximal OD630 over 48 hr divided by maximal OD of control (Capnocytophaga sputigena; 10 μmol/ml): 3.5579 | extent of growth: maximal OD630 over 48 hr divided by maximal OD of control (Capnocytophaga sputigena; 20 μmol/ml): 2.9796 | extent of growth: maximal OD630 over 48 hr divided by maximal OD of control (Capnocytophaga sputigena; 25 μmol/ml): 0.9701 | extent of growth: maximal OD630 over 48 hr divided by maximal OD of control (Streptococcus sanguinis; 5 μmol/ml): 0.9059 | extent of growth: maximal OD630 over 48 hr divided by maximal OD of control (Streptococcus sanguinis; 10 μmol/ml): 0.9070 | extent of growth: maximal OD630 over 48 hr divided by maximal OD of control (Streptococcus sanguinis; 20 μmol/ml): 0.6852 | extent of growth: maximal OD630 over 48 hr divided by maximal OD of control (Streptococcus sanguinis; 25 μmol/ml): 0.5011 | extent of growth: maximal OD630 over 48 hr divided by maximal OD of control (Porphyromonas gingivalis; 5 μmol/ml): 0.8702 | extent of growth: maximal OD630 over 48 hr divided by maximal OD of control (Porphyromonas gingivalis; 10 μmol/ml): 0.8266 | extent of growth: maximal OD630 over 48 hr divided by maximal OD of control (Porphyromonas gingivalis; 20 μmol/ml): 0.7021 | extent of growth: maximal OD630 over 48 hr divided by maximal OD of control (Porphyromonas gingivalis; 25 μmol/ml): 0.4276 | extent of growth: maximal OD630 over 48 hr divided by maximal OD of control (Veillonella parvula; 5 μmol/ml): 0.9980 | extent of growth: maximal OD630 over 48 hr divided by maximal OD of control (Veillonella parvula; 10 μmol/ml): 0.9808 | extent of growth: maximal OD630 over 48 hr divided by maximal OD of control (Veillonella parvula; 20 μmol/ml): 0.9516 | extent of growth: maximal OD630 over 48 hr divided by maximal OD of control (Veillonella parvula; 25 μmol/ml): 0.9671 | extent of growth: maximal OD630 over 48 hr divided by maximal OD of control (Streptococcus mutans; 5 μmol/ml): 0.9473 | extent of growth: maximal OD630 over 48 hr divided by maximal OD of control (Streptococcus mutans; 10 μmol/ml): 0.9083 | extent of growth: maximal OD630 over 48 hr divided by maximal OD of control (Streptococcus mutans; 20 μmol/ml): 0.7929 | extent of growth: maximal OD630 over 48 hr divided by maximal OD of control (Streptococcus mutans; 25 μmol/ml): 0.5618
